The text below walks through data of publication PMC10789823, “Synthesis, structural characterizations, in vitro biological evaluation and computational investigations of pyrazole derivatives as potential antidiabetic and antioxidant agents” (Scientific Reports, 2024).

Where “and” joins values, the source holds several entries; their conditions need not be identical. Equal entries are not always repeated. Where two headings read alike, the source gives them in different places. Where only a bound is given, the exact number is not on record here.

Test [1] is described as follows: ABTS assay. The following applies: for IC50: called SC50, mean ± standard deviation (n = 3). The procedure:
(§1) The antioxidant activities of the title compound were determined in vitro by DPPH, ABTS, FRAP and hydrogen peroxide activity (H2O2) methods according to the procedures described in our previous works.
The ABTS assay was performed as previously described by (Tuberoso et al., 2013). ABTS+ radical was generated by oxidation of ABTS with potassium persulfate. The blue-green ABTS was produced through the reaction between 2 mM ABTS and 70 mM potassium persulfate in water. The mixture was left to stand in the dark for 12–16 h before use. The ABTS+ solution as diluted with methanol to an absorbance of 0.700 ± 0.005 at 734 nm. Then 2 mL of diluted ABTS solution were mixed with 100 μL of samples and absorbance was measured after 1 min incubation at room temperature. A standard curve was obtained by using Ascorbic acid as standard solution.

The nature of test [2]: Hydrogen peroxide activity (H2O2). The note with it: mean ± standard deviation (n = 3). How it is done:
as §1
The hydrogen-donating activity, measured utilizing hydrogen peroxide radicals as the hydrogen acceptor was performed as previously described by (Muruhan et al., 2013) with minor modifications. Briefly a solution of hydrogen peroxide (40 mM) was prepared in phosphate buffer (pH 7.4). Different concentrations of the prepared compounds (62.5, 31.25, 15.62, 7.81 and 3.9 μM) were added to a hydrogen peroxide solution (0.6 mL, 40 mM). The absorbance of hydrogen peroxide at 230 nm was determined after 10 min against a blank solution containing phosphate buffer without hydrogen peroxide (or ascorbic acid as the control). The hydrogen peroxide percentage activity was then calculated using the following equation: […]

A short description of test [3]: Ferric reducing power assay (FRAP). The following applies: mean ± standard deviation (n = 3). The procedure:
as §1
The ferric ion (Fe^3+) reducing power assay was performed as previously described by (Amarowicz et al., 2004) with minor modifications. Briefly, 1 mL of the samples were mixed with 2.5 mL of 0.2 M sodium phosphate buffer (pH 6.6) and 2.5 mL of 1% potassium ferricyanide. The mixtures were incubated in a […] water bath at 50 °C for 20 min. Then, 2.5 mL of 10% trichloroacetic acid was added and centrifuged at 3000 rpm for 10 min. Finally, 2.5 mL of the supernatant were mixed with 2.5 mL distilled water and 0.5 mL FeCl3 solution (0.1%, w/v). The absorbance was measured at 700 nm and the results were expressed as IC50.

Test [4] in a line: DPPH radical scavenging activity assay. The following applies: called SC50; mean ± standard deviation (n = 3). How it is done:
as §1
The DPPH radical activity assay was performed following (Huang et al., 2011) with minor modification. The method using the stable free radical 2,2-diphenyl-1-picrylhydrazyl (DPPH) is based upon the reduction of DPPH free radical. Different concentrations of the prepared compounds (500, 250, 125, 62.5, 31.25 µM) were tested. The DPPH solution was prepared by dissolving 3,9mg of DPPH in 50 mL of the methanol. Then, 50µL of each concentration was added to 1,2ml of methanol and 250µL of the prepared DPPH solution […]. The reaction mixture incubated in the dark for 30 min. The control was prepared by adding 1,25 mL of methanol to 250 µL of DPPH. Ascorbic acid was used as the standard. The absorbances of solutions were spectrophotometrically examined at 517 nm. The radical activity is expressed as inhibition ratio of initial concentration of DPPH radical and is calculated according to the formula: […]
Where AbsDPPH is the absorbance of DPPH radical and Abssample is the absorbance in the presence of sample.

The target of test [5] is α-amylase from Bacillus licheniformis (Bacillus licheniformis, UniProt P06278). The test is described as follows: biochemical. The note with it: mean ± standard deviation (n = 3). The procedure: (§2) The α-glucosidase and α-amylase inhibitory activities of compounds Pyz-1 and Pyz-2 were determined using the method described in our previous works[48],[49].
(§3) All other reagents and standards were of analytical reagent grade.
The α-amylase assay was performed by reacting various concentrations of compounds with α-amylase and starch solution by following the DNSA method with minor modifications (Hashim et al., 2013). The evaluated samples were dissolved in tampon phosphate with various concentrations. The sample solution (10μL) was mixed with 240μL (sodium phosphate buffer 0.02M pH6.9) containing α-amylase (240U/mL), and incubated at 37°C for 20 min. After pre-incubation, 250 µL of 1% starch solution were added to each tube and incubated for 15 min. 1ml of dinitrosalicylic acid was added to stop the reaction, then incubate the solution in a water bath at 90°C for 10 min. The mixture was diluted with 1 mL deionized water and the absorbance (Abs) was measured at 540 nm.
The IC50 values were determined by the percentage of inhibitions at different concentrations.

Test [6] deals with xanthine oxidase (Homo sapiens, UniProt P47989). Briefly: Xanthine oxidase inhibition assay (XO). The following applies: mean ± standard deviation (n = 3). The test is classed as biochemical. The procedure:
The xanthine oxidase inhibitory activity of Pyz-1 and Pyz-2 was performed following the method described by Kostić et al.[50], with minor modifications. The samples were prepared at series of concentrations. 1.95 ml of 5 mM phosphate buffer pH 7.5 and 50 µl of enzyme solution was added to the mixtures. After pre-incubation at 25 °C for 15 min. 1 ml of substrate was added.

Test [7] concerns the target α-glucosidase from Saccharomyces cerevisiae (Saccharomyces cerevisiae, UniProt P53341). Briefly: biochemical. The procedure:
as §2, §3
The α-glucosidase inhibitory activity was performed by using (ρ-nitrophenyl-α-D-glucopyranoside) as a substrate according to the method described by (Kee et al., 2013),with minor modifications. The α-glucosidase method is based on the inhibition of the enzyme. α-glucosidase, which hydrolyses (4-Nitrophenyl-α-d-glucopyranoside) to α-d-glucopyranose and P-nitrophenol of yellow color. The target compound was dissolved in DMSO and all the evaluated samples were dissolved in tampon phosphate at a series of concentrations. A mixture of 150 µl of the sample and 100 µl of PBS (pH = 6.7) containing the α- glucosidase enzyme solution (0.1U/ml) was incubated at 37 ° C for 10 min, after incubation, 200µl of pNPG (1 mM) was added to the mixture. The mixtures were incubated at 37 °C for 30 min. Then 1 ml Na2CO3 (0.1 M) was added to stop the reaction. The absorbance was measured at 405 nm. The results were expressed in percentage of inhibition according to the following formula: […]
The same reaction mixture without α-glucosidase was used as negative control.

The mark [8] stands for this setting: mean ± standard deviation (n = 3), read-out: IC50 α-Glucosidase.

As usually defined, the IC50 is the concentration at which inhibition is half-maximal.

Sequence of α-glucosidase from Saccharomyces cerevisiae (P53341 whole entry): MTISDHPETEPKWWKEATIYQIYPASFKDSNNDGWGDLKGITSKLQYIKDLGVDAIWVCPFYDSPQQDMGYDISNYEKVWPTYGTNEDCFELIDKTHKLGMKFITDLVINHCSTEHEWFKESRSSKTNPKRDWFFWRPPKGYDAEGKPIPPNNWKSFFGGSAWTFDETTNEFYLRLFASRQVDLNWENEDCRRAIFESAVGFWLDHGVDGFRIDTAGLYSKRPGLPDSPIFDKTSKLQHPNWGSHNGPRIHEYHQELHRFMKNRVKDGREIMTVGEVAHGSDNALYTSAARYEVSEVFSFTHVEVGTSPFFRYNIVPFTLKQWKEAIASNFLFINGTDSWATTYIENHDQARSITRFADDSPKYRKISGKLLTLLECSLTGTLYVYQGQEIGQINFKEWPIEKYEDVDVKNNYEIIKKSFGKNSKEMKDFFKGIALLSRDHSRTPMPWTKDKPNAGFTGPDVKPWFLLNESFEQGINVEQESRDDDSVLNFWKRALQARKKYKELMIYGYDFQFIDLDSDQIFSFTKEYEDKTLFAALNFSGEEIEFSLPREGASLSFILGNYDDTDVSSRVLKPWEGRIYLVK
Sequence of α-amylase from Bacillus licheniformis (P06278 30-512): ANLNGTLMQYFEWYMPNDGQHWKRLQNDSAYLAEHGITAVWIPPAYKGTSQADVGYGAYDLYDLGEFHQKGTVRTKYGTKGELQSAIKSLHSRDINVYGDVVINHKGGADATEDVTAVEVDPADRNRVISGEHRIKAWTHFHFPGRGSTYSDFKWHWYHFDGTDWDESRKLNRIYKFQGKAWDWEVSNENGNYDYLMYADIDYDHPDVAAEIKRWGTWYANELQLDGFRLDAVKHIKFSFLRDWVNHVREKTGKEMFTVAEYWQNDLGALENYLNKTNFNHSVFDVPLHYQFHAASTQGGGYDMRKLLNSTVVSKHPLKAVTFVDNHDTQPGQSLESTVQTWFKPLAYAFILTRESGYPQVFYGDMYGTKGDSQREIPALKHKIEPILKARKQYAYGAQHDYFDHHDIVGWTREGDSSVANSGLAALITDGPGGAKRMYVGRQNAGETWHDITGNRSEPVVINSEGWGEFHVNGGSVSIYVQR
Sequence of xanthine oxidase (P47989 whole entry, species assumed): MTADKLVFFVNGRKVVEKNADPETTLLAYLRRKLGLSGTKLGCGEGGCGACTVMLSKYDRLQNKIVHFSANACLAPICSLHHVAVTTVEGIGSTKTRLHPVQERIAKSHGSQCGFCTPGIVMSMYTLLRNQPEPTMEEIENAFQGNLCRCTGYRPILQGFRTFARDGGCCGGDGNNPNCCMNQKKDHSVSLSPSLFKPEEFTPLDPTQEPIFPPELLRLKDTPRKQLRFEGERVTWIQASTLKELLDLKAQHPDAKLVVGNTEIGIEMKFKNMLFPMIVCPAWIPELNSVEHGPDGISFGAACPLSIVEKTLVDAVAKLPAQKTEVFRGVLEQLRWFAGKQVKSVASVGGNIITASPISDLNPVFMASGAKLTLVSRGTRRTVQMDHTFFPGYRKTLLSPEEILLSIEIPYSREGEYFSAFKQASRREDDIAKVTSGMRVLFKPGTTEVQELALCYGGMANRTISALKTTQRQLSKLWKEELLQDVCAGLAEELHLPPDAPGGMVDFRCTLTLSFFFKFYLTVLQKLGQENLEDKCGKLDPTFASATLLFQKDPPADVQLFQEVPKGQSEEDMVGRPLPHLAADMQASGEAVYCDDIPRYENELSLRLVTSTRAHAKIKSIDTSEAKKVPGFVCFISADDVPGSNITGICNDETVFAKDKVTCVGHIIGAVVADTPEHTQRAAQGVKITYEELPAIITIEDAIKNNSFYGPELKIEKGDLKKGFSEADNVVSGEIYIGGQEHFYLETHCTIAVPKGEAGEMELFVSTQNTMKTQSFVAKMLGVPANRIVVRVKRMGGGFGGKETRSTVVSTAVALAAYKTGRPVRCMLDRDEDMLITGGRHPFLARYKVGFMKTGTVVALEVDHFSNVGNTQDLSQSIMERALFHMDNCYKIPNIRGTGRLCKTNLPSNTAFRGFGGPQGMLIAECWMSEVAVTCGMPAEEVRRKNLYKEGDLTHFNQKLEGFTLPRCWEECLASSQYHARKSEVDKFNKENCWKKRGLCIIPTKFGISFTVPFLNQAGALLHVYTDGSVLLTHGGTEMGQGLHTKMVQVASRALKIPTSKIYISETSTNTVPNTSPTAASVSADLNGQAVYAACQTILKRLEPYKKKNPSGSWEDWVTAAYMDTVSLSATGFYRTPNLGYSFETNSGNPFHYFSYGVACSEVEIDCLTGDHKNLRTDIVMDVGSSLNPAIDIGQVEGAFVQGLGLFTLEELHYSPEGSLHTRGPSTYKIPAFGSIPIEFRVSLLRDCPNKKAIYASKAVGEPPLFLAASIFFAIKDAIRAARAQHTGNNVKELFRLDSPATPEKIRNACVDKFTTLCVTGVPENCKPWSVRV

With `O=C1O[C@H]([C@@H](O)CO)C(O)=C1O` [Ascorbic acid, reference compound], the IC50 in test [1] is 22.5 ± 0.59 µM; in test [2], 7.45 ± 1.11 µM; in test [3] it was 88.12 ± 0.23 µM; in test [4], 78.11 ± 0.68 µM.
As for `Cc1cc(C(=O)NNC(=O)Nc2ccccc2)n[nH]1` [Pyz-1, 2-(5-methyl-1H-pyrazole-3-carbonyl)-N-phenylhydrazine-1-carboxamide], the IC50 in test [1] is 79.77 ± 0.45 µM; in test [5], 120 µM and 119 µM; in test [2] it was 31.5 ± 0.92 µM; in test [3] it was 100.2 ± 0.79 µM; in test [4], 238.5 ± 1.12 µM; in test [6], 24.3 ± 0.78 µM. In test [7], this compound displayed an IC50 of 75.62 ± 0.56 µM.
Turning to `Cc1cc(C(=O)NN)[nH]n1` [Compound 1, 5-methyl-1H-pyrazole-3-carbohydrazide], the IC50 was greater than 500 µM in test [5] and 279 ± 4.03 µM in test [7] (setting [8]).
As for `Cc1cc(-c2nnc(S)n2N)n[nH]1` [Pyz-2, 4-amino-5-(5-methyl-1H-pyrazol-3-yl)-4H-1,2,4-triazole-3-thiol], the IC50 is 20.5 ± 0.87 µM in test [1]; 119 µM and 120 µM in test [5]; 24.8 ± 1.23 µM in test [2]; 62.62 ± 0.49 µM in test [3]; 139 ± 1.45 µM in test [4]; 10.8 ± 0.54 µM in test [6]. Also, the IC50 in test [7] (setting [8]) worked out at 95.85 ± 0.92 µM. In addition, the “ABTS scavenging activity relative to Pyz-1” value in test [1] (ratio of SC50 values, versus Pyz-1) came out at 3.88 fold.
